Measurements published in PubChem BioAssay (NCI).
Values joined by “and” are separate entries in the source; they are usually repeats but may differ in a detail not shown here. Identical values can stand only once.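 48-hour exposure; five concentrations; linearly interpolated endpoints. GI50 = concentration required for 50% inhibition of growth. TGI: total growth inhibition.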

Assays:
Assay in all cases: growth of human tumour cells (NCI), 48 h
A549 NSCLC = test system: A549 NSCLC
HCT-116 colon = test system: HCT-116 colon
HCT-15 colon = test system: HCT-15 colon
HT29 colon = test system: HT29 colon
NCI/ADR-RES ovarian = test system: NCI/ADR-RES ovarian
OVCAR-4 ovarian = test system: OVCAR-4 ovarian
SK-MEL-2 melanoma = test system: SK-MEL-2 melanoma
UACC-62 melanoma = test system: UACC-62 melanoma
HS 578T breast = test system: HS 578T breast
PC-3 prostate = test system: PC-3 prostate

| SMILES | GI50 (A549 NSCLC) [µM] | TGI (A549 NSCLC) | GI50 (HCT-116 colon) [µM] | TGI (HCT-116 colon) [µM] | GI50 (HCT-15 colon) [µM] | TGI (HCT-15 colon) | GI50 (HT29 colon) [µM] | TGI (HT29 colon) | GI50 (NCI/ADR-RES ovarian) [µM] | TGI (NCI/ADR-RES ovarian) [µM] | GI50 (OVCAR-4 ovarian) [µM] | TGI (OVCAR-4 ovarian) | GI50 (SK-MEL-2 melanoma) [µM] | TGI (SK-MEL-2 melanoma) | GI50 (UACC-62 melanoma) [µM] | TGI (UACC-62 melanoma) | TGI (HS 578T breast) [µM] | TGI (PC-3 prostate) | GI50 (PC-3 prostate) [µM] | GI50 (HS 578T breast) [µM] |
| --- | --- | --- | --- | --- | --- | --- | --- | --- | --- | --- | --- | --- | --- | --- | --- | --- | --- | --- | --- | --- |
| O.O=[Se](=O)(O)O.[NH-]C1CCCCC1[NH-].[Pt+2] (centres undefined) | 5.26 | > 100 µM | 4.36 | > 100 | 8.39 | > 100 µM | 4.62 | > 100 µM | 11.3 | > 100 | 11.6 | > 100 µM | 22.9 | > 100 µM | 4.25 | 26.4 µM |  |  |  |  |
| Cn1c(=O)c2[nH]cnc2n(C)c1=O |  | > 100 µM |  | > 100 |  | > 100 µM |  |  |  | > 100 |  |  |  | > 100 µM |  |  | > 100 | > 100 µM |  |  |
| C#Cc1ccccc1C(=O)OC |  | > 100 µM |  | > 100 |  | > 100 µM |  | > 100 µM |  |  |  | > 100 µM |  | > 100 µM |  | > 100 µM |  |  |  |  |
| COC(=O)C[C@H]1[C@]2(C)C3=C(C)[C@H](c4ccoc4)CC3O[C@@H]2[C@@H]2OC(=O)[C@]3(C)CCC(=O)[C@@]1(C)[C@@H]23 (some centres undefined) |  | > 100 µM |  | > 100 |  | > 100 µM |  | > 100 µM |  | > 100 |  | > 100 µM |  | > 100 µM |  | > 100 µM | > 100 |  |  |  |
| CC[N+]1(C)CCC(O)(/C=C/c2ccc(Cl)c(Cl)c2)C(C(=O)/C=C/c2ccc(Cl)c(Cl)c2)C1 (centres undefined) |  | 15.7 µM |  | 3 |  | 7.13 µM |  | 4.53 µM |  | 6.63 |  |  |  | 11.4 µM |  | 3.64 µM | 7.66 | 5.19 µM |  |  |
| O=c1oc2ccccc2cc1-c1nc2ccccc2s1 |  | 16.8 µM |  |  |  |  |  | 25.8 µM |  |  |  | 29 µM |  | 60.2 µM |  |  | 20.4 | > 84.3 µM |  |  |
| CN(NC(=O)/C(=C/C=C/c1ccccc1)NC(=O)c1ccccc1)C1=C(Cl)C(=O)[N+](c2ccccc2)=CC1 |  | 93.8 µM |  | 45.7 |  | 62.8 µM |  | > 100 µM |  | 53.8 |  | 64 µM |  | 70.9 µM |  |  | > 100 | > 100 µM |  |  |
| CCCCCCCCCC[C@@H](O)[C@H]1CC[C@@H]([C@H]2CC[C@H]([C@H](O)CCCCCCCCCC[C@@H]3CC(CC(C)=O)C(=O)O3)O2)O1 (some centres undefined) | 14.3 | > 100 µM | 0.218 | > 100 | 20.9 | > 100 µM |  |  | 11.9 |  |  | 85.5 µM | 21.5 | 59.9 µM |  |  | 3.78 | 99.4 µM | 25.4 |  |
| Cc1cc(=O)[nH]c(S(=O)(=O)NC(=S)Nc2ccc(Br)cc2)n1 |  |  |  |  |  | > 100 µM |  | > 100 µM |  | > 100 |  | > 100 µM |  | > 100 µM |  | > 100 µM | > 100 | > 100 µM |  |  |
| Cc1cccc(-c2cc(=O)c3c(C)ccnc3[nH]2)c1 |  | > 100 µM |  | > 33.5 |  | > 100 µM |  | > 100 µM |  |  |  | > 100 µM |  | > 100 µM |  | > 100 µM | > 100 | > 100 µM |  |  |
| O=C1/C(=C/c2ccc(Cl)c(Cl)c2)CN(C(=O)CCN2CCOCC2)C/C1=C\c1ccc(Cl)c(Cl)c1 |  |  |  |  |  |  |  |  |  |  | 1.56 |  |  |  | 1.92 | 3.27 µM and 4.9 µM | > 10 | 0.0157 µM |  |  |
| COc1cccc2c1C(=O)c1c(O)c3c(c(O)c1C2=O)C[C@](O)(C(=O)CO)CC3OC1CC(N)C(OC2CCCCO2)C(C)O1 (some centres undefined) |  | 13.3 µM |  | 2.49 |  | 5.14 µM |  | 4.52 µM |  | 41.8 |  | 4.2 µM |  | 2.43 µM |  | 1.11 µM |  |  |  |  |
| CC(=O)Oc1ccc(-c2c(OC(C)=O)c(OC(C)=O)c(-c3ccc(OC(C)=O)c(OC(C)=O)c3)c(OC(C)=O)c2OC(C)=O)cc1 |  | 37.8 µM |  | 40.2 |  | 37.3 µM |  | 36.1 µM |  | > 100 |  | 31.8 µM |  | 29.9 µM |  | 33.7 µM |  | 31 µM |  |  |
| CC(C)=CCC/C(C)=C/CCC1(C)C2COC(=O)C21 (centres undefined) |  |  |  | > 100 |  | > 100 µM |  | > 100 µM |  |  |  | > 100 µM |  | > 100 µM |  | > 100 µM |  | > 100 µM |  |  |
| C=C(Cl)C(=C)CCC(Cl)C(C)(C)Cl (centres undefined) |  | > 100 µM |  | > 100 |  |  |  | > 100 µM |  | > 100 |  | > 100 µM |  | > 100 µM |  | > 100 µM | > 100 | > 100 µM |  |  |
| Cc1ccc(Oc2cc(C)ccc2P(=O)(O)O)cc1 |  | > 100 µM |  | > 100 |  | > 100 µM |  |  |  |  |  |  |  | > 100 µM |  | > 100 µM | > 100 | > 100 µM |  |  |
| CCOC(=O)Cn1c(C)nc2nn(Cc3ccccc3)cc2c1=O |  | > 100 µM |  | > 100 |  | > 100 µM |  | > 100 µM |  | > 100 |  |  |  | > 100 µM |  | > 100 µM | > 100 | > 100 µM |  |  |
| O=C(O)C1(Cc2ccc3c(c2)CCC3)Cc2cc3c(cc2C1)CCC3 |  | > 100 µM |  | > 100 |  | > 100 µM |  | > 100 µM |  |  |  | > 100 µM |  | > 100 µM |  | > 100 µM | > 100 | > 100 µM |  |  |
| CCn1c2ccccc2c2cc(NC(=O)c3c(C)[nH]c(=O)[nH]c3=S)ccc21 |  |  |  | > 100 |  | > 100 µM |  | > 100 µM |  | > 100 |  | > 100 µM |  | > 100 µM |  | > 100 µM | > 100 | > 100 µM |  |  |
| Brc1ccc2[nH]cc(-c3nc(-c4c[nH]c5ccncc45)cs3)c2c1 |  |  |  |  |  |  |  |  |  |  |  |  | 1.92 | 3.72 µM |  |  |  | 3.06 µM | 1.58 |  |
| O=C(O)c1cc2c(cc1CC(Cc1ccccc1)C(=O)O)CCC2 (centres undefined) |  | > 100 µM |  | > 100 |  | > 100 µM |  | > 100 µM |  | > 100 |  | > 100 µM |  | > 100 µM |  |  | > 100 | > 100 µM |  |  |
| COc1ccc(/C(Cl)=C(\C=O)c2ccc(Cl)cc2)cc1 |  | > 100 µM |  | 20.8 |  | > 100 µM |  | 15.6 µM |  |  |  | > 100 µM |  | 54.6 µM |  | 32.8 µM |  |  |  |  |
| Cc1cc2nnn(C3CCCO3)c2cc1C (centres undefined) |  | > 100 µM |  | > 100 |  | > 100 µM |  | > 100 µM |  | > 100 |  |  |  | > 100 µM |  | > 100 µM | > 100 | > 100 µM |  |  |
| Oc1cc(Br)cc2cc(Br)cnc12 |  | > 100 µM |  | > 100 |  | > 100 µM |  | > 100 µM |  | > 100 |  | 9.59 µM |  |  |  | 5.88 µM | 63.8 | > 100 µM |  |  |
| Nc1ncnc2c(C3OC(CO)C(O)C3O)c[nH]c12 (centres undefined) |  | 0.0775 µM and 0.434 µM |  | 0.16 |  | 0.333 µM and 0.3 µM |  | 0.343 µM and 1.21 µM |  |  |  | 0.705 µM and 0.741 µM | 0.00179 | 0.0101 µM and < 0.0304 µM | 0.0101 | 0.0496 µM and 0.0377 µM |  | 0.128 µM and 0.324 µM |  | 0.0247 |
